Reference: PubChem BioAssay AID1963972 (Molecular Pharmacology Branch, DTP, NCI, 2024)

Test system: 945468-187-T-J2-PDC spheroids viability
Assay: Anticancer human tumor 945468-187-T-J2-PDC patient-derived rectal carcinoma cell line growth inhibition [PI3K]
Conditions: spheroids with HUVEC and MSC; for IC50: curve of first compound; for viability, T/C: stronger effect = lower value
Method in brief: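 Stroma-containing spheroids: tumor line, pooled-donor HUVEC, hMSC. Treatments: targeted agents with PI3K inhibitors. Dosing: clinically relevant, half-log spacing, 10 microM ceiling without known Cmax. Read-out: cell viability.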

[1] = second compound 0.0316 µM, first compound 0.0316 µM
[2] = second compound 0.0316 µM, first compound 0.1 µM
[3] = second compound 0.0316 µM, first compound 0.316 µM
[4] = second compound 0.0316 µM, first compound 1 µM
[5] = second compound 0.1 µM, first compound 0.0316 µM
[6] = second compound 0.1 µM, first compound 0.1 µM
[7] = second compound 0.1 µM, first compound 0.316 µM
[8] = second compound 0.1 µM, first compound 1 µM
[9] = second compound 0.316 µM, first compound 0.0316 µM
[10] = second compound 0.316 µM, first compound 0.1 µM
[11] = second compound 0.316 µM, first compound 0.316 µM
[12] = second compound 0.316 µM, first compound 1 µM
[13] = second compound 1 µM, first compound 0.0316 µM
[14] = second compound 1 µM, first compound 0.1 µM
[15] = second compound 1 µM, first compound 0.316 µM
[16] = second compound 1 µM, first compound 1 µM
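Note: spheroids exposed to compounds for seven days before reading.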

CC(Cn1ccc(-c2ccc(C#N)c(Cl)c2)n1)NC(=O)c1cc(C(C)O)[nH]n1 (centres undefined) + Cc1nc(NC(=O)N2CCCC2C(N)=O)sc1-c1ccnc(C(C)(C)C(F)(F)F)c1
IC50 (second compound 0.0316 µM): > 10 µM
IC50 (second compound 0.1 µM): > 10 µM
IC50 (second compound 0.316 µM): > 10 µM
IC50 (second compound 1 µM): > 10 µM
IC50 (second compound 3.16 µM): > 10 µM
IC50 (second compound 10 µM): > 10 µM
viability, T/C [1]: 118%
viability, T/C [2]: 94.1%
viability, T/C [3]: 115%
viability, T/C [4]: 96.3%
viability, T/C (second compound 0.0316 µM, first compound 3.16 µM): 90.7%
viability, T/C (second compound 0.0316 µM, first compound 10 µM): 82.5%
viability, T/C [5]: 90.7%
viability, T/C [6]: 81%
viability, T/C [7]: 90.8%
viability, T/C [8]: 100%
viability, T/C (second compound 0.1 µM, first compound 3.16 µM): 104%
viability, T/C (second compound 0.1 µM, first compound 10 µM): 82.1%
viability, T/C [9]: 100%
viability, T/C [10]: 95.6%
viability, T/C [11]: 109%
viability, T/C [12]: 80%
viability, T/C (second compound 0.316 µM, first compound 3.16 µM): 89.6%
viability, T/C (second compound 0.316 µM, first compound 10 µM): 83.4%
viability, T/C [13]: 95.4%
viability, T/C [14]: 84.9%
viability, T/C [15]: 79.4%
viability, T/C [16]: 101%
viability, T/C (second compound 1 µM, first compound 3.16 µM): 79.3%
viability, T/C (second compound 1 µM, first compound 10 µM): 84.7%
viability, T/C (second compound 3.16 µM, first compound 0.0316 µM): 81%
viability, T/C (second compound 3.16 µM, first compound 0.1 µM): 84.2%
viability, T/C (second compound 3.16 µM, first compound 0.316 µM): 78.4%
viability, T/C (second compound 3.16 µM, first compound 1 µM): 83.5%
viability, T/C (second compound 3.16 µM, first compound 3.16 µM): 71.7%
viability, T/C (second compound 3.16 µM, first compound 10 µM): 74.9%
viability, T/C (second compound 10 µM, first compound 0.0316 µM): 76.9%
viability, T/C (second compound 10 µM, first compound 0.1 µM): 76.3%
viability, T/C (second compound 10 µM, first compound 0.316 µM): 73.3%
viability, T/C (second compound 10 µM, first compound 1 µM): 68%
viability, T/C (second compound 10 µM, first compound 3.16 µM): 69%
viability, T/C (second compound 10 µM, first compound 10 µM): 61.5%

CCN1CCN(Cc2ccc(Nc3ncc(F)c(-c4cc(F)c5nc(C)n(C(C)C)c5c4)n3)nc2)CC1 + COc1c(OCCCN2CCOCC2)ccc2c3n(c(=NC(=O)c4cnc(N)nc4)nc12)CCN3
IC50 (second compound 0.00316 µM): > 1 µM
IC50 (second compound 0.01 µM): > 1 µM
IC50 (second compound 0.0316 µM): 0.704 µM
IC50 (second compound 0.1 µM): 0.199 µM
IC50 (second compound 0.316 µM): < 0.00316 µM
IC50 (second compound 1 µM): < 0.00316 µM
viability, T/C (second compound 0.00316 µM, first compound 0.00316 µM): 107%
viability, T/C (second compound 0.00316 µM, first compound 0.01 µM): 93.5%
viability, T/C (second compound 0.00316 µM, first compound 0.0316 µM): 104%
viability, T/C (second compound 0.00316 µM, first compound 0.1 µM): 102%
viability, T/C (second compound 0.00316 µM, first compound 0.316 µM): 87.6%
viability, T/C (second compound 0.00316 µM, first compound 1 µM): 75.1%
viability, T/C (second compound 0.01 µM, first compound 0.00316 µM): 119%
viability, T/C (second compound 0.01 µM, first compound 0.01 µM): 128%
viability, T/C (second compound 0.01 µM, first compound 0.0316 µM): 94.9%
viability, T/C (second compound 0.01 µM, first compound 0.1 µM): 115%
viability, T/C (second compound 0.01 µM, first compound 0.316 µM): 84%
viability, T/C (second compound 0.01 µM, first compound 1 µM): 66.2%
viability, T/C (second compound 0.0316 µM, first compound 0.00316 µM): 120%
viability, T/C (second compound 0.0316 µM, first compound 0.01 µM): 110%
viability, T/C [1]: 92.9%
viability, T/C [2]: 112%
viability, T/C [3]: 69%
viability, T/C [4]: 41.6%
viability, T/C (second compound 0.1 µM, first compound 0.00316 µM): 105%
viability, T/C (second compound 0.1 µM, first compound 0.01 µM): 91.8%
viability, T/C [5]: 93.1%
viability, T/C [6]: 72.7%
viability, T/C [7]: 34.4%
viability, T/C [8]: 22.1%
viability, T/C (second compound 0.316 µM, first compound 0.00316 µM): 48.7%
viability, T/C (second compound 0.316 µM, first compound 0.01 µM): 41.2%
viability, T/C [9]: 39.5%
viability, T/C [10]: 24.4%
viability, T/C [11]: 20.2%
viability, T/C [12]: 21.4%
viability, T/C (second compound 1 µM, first compound 0.00316 µM): 21.7%
viability, T/C (second compound 1 µM, first compound 0.01 µM): 20.8%
viability, T/C [13]: 14.1%
viability, T/C [14]: 17.9%
viability, T/C [15]: 14.3%
viability, T/C [16]: 16.3%
